{
  "source": "patent US20050245452A1",
  "about": "“Pharmaceutical use of novispirins” (Novozymes A/S, priority 2004, published 2005)",
  "key": {"[1]": {"system": "Pseudomonas aeruginosa (ATCC 27853)", "test": "Pseudomonas aeruginosa wound infection in pigs (wound chambers, 4 hour time course)", "format": "in vivo, Göttinger minipigs", "experimental": "The bacterial strain, Pseudomonas aeruginosa, used in the study was ATCC 27853. The amino acid sequence of Novispirin G10 is shown in SEQ ID NO: 16.\nNovispirin G10 was diluted in 0.01% acetic acid containing 0.1% BSA with a final concentration of 1 mg (substrate)/ml (solution); 100 micrograms/ml and 10 micrograms/ml. The carrier control was 0.01% acetic acid containing 0.1% BSA.\nThe chambers are made out of titanium, have a screw top cover (also made out of titanium) and have an inner diameter of 25 mm.\nAfter providing permission to conduct experiments with vertebrates in compliance with German animal protection laws, Göttinger minipigs (Fa. Ellegaard, Dalmose, Denmark, male, No. 86242 and 86260, 12 months old, 35 kg weight) were chosen to implant the chambers on. The pigs were kept at least 2 weeks in the stable, fed a standard porcine diet and housed at 20° C. to 30° C. in an atmosphere of approximately 65% humidity with a light cycle of 12 hours on and 12 hours off. The pig used for this study appeared during the experiments clinically healthy—rectal temperature and body weight remained normal over the observed period.\nBefore wounding the skin was surgically prepared, washed with soap and desinfected with Octenisept (S&M, Norderstedt, Germany) for five minutes. Twelve wound chambers were implanted on the pigs back and flank between the base of the scapula and the iliac crest. The wounds were spaced a minimum of 5 cm apart and were created in four rows parallel to the columna vertebralis, two rows on each side of the columna vertebralis. The exact size and shape of the wounds were ensured by a special custom-made “round-scalpel”, which has a diameter of 33 mm. Epidermal, dermal subcutaneous tissue was removed, possible bleedings stanched by bipolar diathermy. The chambers were placed with an additionally secant v-incision at positions 6 respectively 12 o'clock on the musculus thoracicus longus fascia and the muscle fascia of the external ripcage muscles. The incisions were sutured with 4-0 Prolene followed by the closure of the chambers. Povidone-iodine salve (Betaisodonna-salve, Mundipharma, Austria) was smothered on the wound edges. The chambers were dressed with paraffin gauze (Jelonet, Smith & Nephew, Lohfelden, Germany) and sterile compresses (Johnson & Johnson, Gargrave, UK). Dressings were changed every second day under sedation (as described above).\nBacterial Background of each chamber was measured every second day to detect potential contamination. One contaminated chamber was detected. Eight days post operation all chambers were inoculated with bacteria.\nFor bacteria progeny, Pseudomonas aeruginosa (ATCC 27853) was plated on LB-Agar plates and incubated at 37° C. for 18 hours. One colony was picked, and transferred into 3 ml LB-Medium and grown over night at 37° C. at 300 rpm. The over night culture was diluted in 50 ml fresh LB-Medium and incubated for 2.5 hours at 37° C. at 200 rpm.\nBacteria were centrifuged at 4000 rpm, 5 min (Mergafuge 1.0 R, Heraeus, Hanau, Germany), and the pellet was resuspended in PBS. The amount of containing bacteria was determined by OD600 nm-measurement and calculated as follows: Colony forming Unit/ml=OD600 nm×2.5×10^8 (bacteria)\nTo inoculate one chamber, 5×10^8CFU were used.\nThe establishment of the infection was proven by the measurment of bacterial counts per chamber. All inoculated chambers were infected after two days.\nAt fourth day post infection, the antimicrobial effect of the testing substrate was measured in a time course of 4 hours in duration. Each chamber was cleaned before starting the time course, wound fluid was selected and blood clots were discarded. Before starting the time course each chamber was inoculated again with 1×10^8 CFU Pseudomonas aeruginosa to get an equal bacterial amount for each chamber. One ml of the prepared samples with diluted test substrate and carrier control were applied in selected chambers.\nEach chamber was rinsed with the applied solution several times. […]"}, "[2]": {"system": "Pseudomonas aeruginosa CF86/57388A (mucoid)", "test": "Pseudomonas aeruginosa lung infection in rats: lung pathology and lung bacteriology", "format": "in vivo, Lewis rat", "settings": "for Lung bacteriology: Percentage of animals that cleared the bacteria in the lungs / Lung pathological scores: animals with Score 1 + 2 / Lung pathological scores: animals with Score 3 / Lung pathological scores: animals with Score 4: 0.1 mg/ml, 0.1 ml/rat intratracheally at hour 0 and 3", "experimental": "The bacterial strain, Pseudomonas aeruginosa, used in the study is CF86/57388A (1997), which is isolated from a cystic fibrosis patient and keeps stable mucoid phenotype. The rat strain used in the study is Lewis rat (7 weeks old, female) imported from Germany. Both bacterial challenge and drug administration were done intratracheally. All rats were challenged with mucoid P. aeruginosa in alginate. The concentration of the bacteria was 1×10^10 CFU/ml and each rat received 0.1 ml (1×10^9 CFU) bacteria. Control group received placebo (sterile saline, 0.1 ml/rat) twice at hour 0 and 3, and the Novispirin G10 group received the peptide (0.1 mg/ml, 0.1 ml/rat) twice at hour 0 and 3. The animals were sacrificed on day 3, 5, 7 and 10 after challenge for parameters evaluation."}},
  "data": [
    {"substance": "Novispirin G10: novispirin antimicrobial polypeptide; amino acid sequence shown in SEQ ID NO: 16 (KNLRRIIRKGIHIIKKYG; Synthetic antimicrobial peptide)", "values": [
      {"measurement": "Mean CFU per ml sample volume (chamber fluid)", "setting": "[1]; 1 mg applied (1 ml of 1 mg/ml), 0.05 hours", "value": 667, "unit": "CFU/ml"},
      {"measurement": "Mean CFU per ml sample volume (chamber fluid)", "setting": "[1]; 1 mg applied (1 ml of 1 mg/ml), 1 hour", "value": 1933, "unit": "CFU/ml"},
      {"measurement": "Mean CFU per ml sample volume (chamber fluid)", "setting": "[1]; 1 mg applied (1 ml of 1 mg/ml), 2 hours", "value": 1167, "unit": "CFU/ml"},
      {"measurement": "Mean CFU per ml sample volume (chamber fluid)", "setting": "[1]; 1 mg applied (1 ml of 1 mg/ml), 3 hours", "value": 517, "unit": "CFU/ml"},
      {"measurement": "Mean CFU per ml sample volume (chamber fluid)", "setting": "[1]; 1 mg applied (1 ml of 1 mg/ml), 4 hours", "value": 733, "unit": "CFU/ml"},
      {"measurement": "Mean CFU per ml sample volume (chamber fluid)", "setting": "[1]; 10 micrograms applied (1 ml of 10 micrograms/ml), 0.05 hours", "value": 413869, "unit": "CFU/ml"},
      {"measurement": "Mean CFU per ml sample volume (chamber fluid)", "setting": "[1]; 10 micrograms applied (1 ml of 10 micrograms/ml), 1 hour", "value": 1225733, "unit": "CFU/ml"},
      {"measurement": "Mean CFU per ml sample volume (chamber fluid)", "setting": "[1]; 10 micrograms applied (1 ml of 10 micrograms/ml), 2 hours", "value": 34811, "unit": "CFU/ml"},
      {"measurement": "Mean CFU per ml sample volume (chamber fluid)", "setting": "[1]; 10 micrograms applied (1 ml of 10 micrograms/ml), 3 hours", "value": 9612, "unit": "CFU/ml"},
      {"measurement": "Mean CFU per ml sample volume (chamber fluid)", "setting": "[1]; 10 micrograms applied (1 ml of 10 micrograms/ml), 4 hours", "value": 17322, "unit": "CFU/ml"},
      {"measurement": "Mean CFU per ml sample volume (chamber fluid)", "setting": "[1]; 100 micrograms applied (1 ml of 100 micrograms/ml), 0.05 hours", "value": 7383, "unit": "CFU/ml"},
      {"measurement": "Mean CFU per ml sample volume (chamber fluid)", "setting": "[1]; 100 micrograms applied (1 ml of 100 micrograms/ml), 1 hour", "value": 138181, "unit": "CFU/ml"},
      {"measurement": "Mean CFU per ml sample volume (chamber fluid)", "setting": "[1]; 100 micrograms applied (1 ml of 100 micrograms/ml), 2 hours", "value": 167413, "unit": "CFU/ml"},
      {"measurement": "Mean CFU per ml sample volume (chamber fluid)", "setting": "[1]; 100 micrograms applied (1 ml of 100 micrograms/ml), 3 hours", "value": 11661, "unit": "CFU/ml"},
      {"measurement": "Mean CFU per ml sample volume (chamber fluid)", "setting": "[1]; 100 micrograms applied (1 ml of 100 micrograms/ml), 4 hours", "value": 2467, "unit": "CFU/ml"},
      {"measurement": "Lung bacteriology: Percentage of animals that cleared the bacteria in the lungs", "setting": "[2]; Day 3", "value": "(30%)"},
      {"measurement": "Lung bacteriology: Percentage of animals that cleared the bacteria in the lungs", "setting": "[2]; Day 5", "value": "(50%)"},
      {"measurement": "Lung bacteriology: Percentage of animals that cleared the bacteria in the lungs", "setting": "[2]; Day 7", "value": "(90%)"},
      {"measurement": "Lung bacteriology: Percentage of animals that cleared the bacteria in the lungs", "setting": "[2]; Day 10", "value": "(100%)"},
      {"measurement": "Gross lung pathology compared with the placebo control group", "setting": "[2]; all 4 time points (day 3, 5, 7, 10)", "value": "significantly milder lung pathology"},
      {"measurement": "Histopathology of lungs", "setting": "[2]; day 3", "value": "lung consolidation with chronic inflammation is the dominant change"},
      {"measurement": "Lung bacteriology compared to the control group", "setting": "[2]; day 3", "value": 175, "unit": "times lower"},
      {"measurement": "Severity of lung scoring versus control group", "setting": "[2]; day 3", "value": "no significant difference in the severity of lung scoring"},
      {"measurement": "Gross lung pathology: lung consolidation area", "setting": "[2]; day 3, versus placebo control", "value": "the consolidation area was much smaller"},
      {"measurement": "Lung pathological scores: animals with Score 1 + 2", "setting": "[2]; day 3 after challenge", "value": "0/14 = 0%"},
      {"measurement": "Lung pathological scores: animals with Score 3", "setting": "[2]; day 3 after challenge", "value": "3/14 = 21.4%"},
      {"measurement": "Lung pathological scores: animals with Score 4", "setting": "[2]; day 3 after challenge", "value": "11/14 = 78.6%"},
      {"measurement": "Histopathology of lungs", "setting": "[2]; day 5", "value": "milder chronic inflammation"},
      {"measurement": "Lung pathological scores: animals with Score 1 + 2", "setting": "[2]; day 5 after challenge", "value": "0/14 = 0%"},
      {"measurement": "Lung pathological scores: animals with Score 3", "setting": "[2]; day 5 after challenge", "value": "10/14 = 71.4%"},
      {"measurement": "Lung pathological scores: animals with Score 4", "setting": "[2]; day 5 after challenge", "value": "0/14 = 0%"},
      {"measurement": "Lung pathological scores: animals with Score 1 + 2", "setting": "[2]; day 7 after challenge", "value": "6/11 = 54.5%"},
      {"measurement": "Lung pathological scores: animals with Score 3", "setting": "[2]; day 7 after challenge", "value": "5/11 = 45.5%"},
      {"measurement": "Lung pathological scores: animals with Score 4", "setting": "[2]; day 7 after challenge", "value": "0/11 = 0%"},
      {"measurement": "Histopathology of lungs", "setting": "[2]; day 10", "value": "the lung pathology was tended to be cured"},
      {"measurement": "Lung pathological scores: animals with Score 1 + 2", "setting": "[2]; day 10 after challenge", "value": "11/14 = 78.6%"},
      {"measurement": "Lung pathological scores: animals with Score 3", "setting": "[2]; day 10 after challenge", "value": "3/14 = 21.4%"},
      {"measurement": "Lung pathological scores: animals with Score 4", "setting": "[2]; day 10 after challenge", "value": "0/14 = 0%"},
      {"measurement": "Gross lung pathology: dominant finding", "setting": "[2]; days 5, 7 and 10", "value": "small lung atelectasis, no abscess and adhesion found"},
      {"measurement": "Severity of lung scoring versus control group", "setting": "[2]; from day 5 on", "value": "significantly milder lung pathology"},
      {"measurement": "Histopathology of lungs in comparison with the placebo control group", "setting": "[2]; overall, intratracheal treatment", "value": "milder lung inflammation and recover remarkably faster"}
    ]}
  ]
}
